Consider one substance from article PMC9599717, “The Multicellular Effects of VDAC1 N-Terminal-Derived Peptide” (Biomolecules, 2022).

Assay [1] deals with U-87MG cells. The assay can be described thus: Immunoblotting of protein expression in peptide-treated cells. The assay is classed as cell-based, human. As to conditions: 12 h. On the procedure:
U-87 MG cells were treated with the indicated concentrations of D-Δ(1-18)N-Ter-Antp peptide in serum-free DMEM for 6 h. Then cells were lysed in lysis buffer (100 mM Tris/HCl pH 8.0, 5% sodium dodecyl sulfate [SDS]), supplemented with a protease inhibitor cocktail (Calbiochem, San Diego, CA, USA). The lysates were vortexed and heated at 70 °C for 10 min. Finally, cell lysates were centrifuged (15,000× g, 10 min at 4 °C), and the protein concentration of the supernatant was determined according to the Lowry assay with a slight modification. Protein samples were stored at −80 °C until subsequent gel electrophoresis. Protein samples (20 μg) were resolved by SDS-polyacrylamide gel electrophoresis and immunoblotted using selected primary antibodies (sources and dilutions are listed in Table S1), followed by incubation with appropriate horseradish peroxidase (HRP)-conjugated secondary antibodies (Table S1). Proteins were detected using the EZ-ECL Enhanced Chemiluminescence Detection Kit (Biological Industries, Beit Haemek, Israel). Band intensities were analyzed with densitometry using FUSION-FX software (Vilber Lourmat, Collegien, France), and the values were normalized to β-actin.
Figure 3 The D-Δ(1-18)N-Ter-Antp peptide induced autophagy and cellular senescence and altered the expression of apoptosis-related proteins. (A,B) U-87MG cells were treated with the indicated concentrations of D-Δ(1-18)N-Ter-Antp peptide for 12 h and then were subjected to immunoblotting for caspase-9, AIF, Bcl-xL, Bcl-2, and Bax and the relative expression level was quantified (B). (C,D) U-87MG cells were treated with the indicated concentrations of D-Δ(1-18)N-Ter-Antp peptide for 12 h and then subjected to immunoblotting for the autophagy markers LC3-I and LC3-II (C) and LC3-II quantification (D). (E,F) U-87MG cells were treated with the indicated concentrations of D-Δ(1-18)N-Ter-Antp peptide for 12 h and then subjected to β-gal activity (blue). Mouse embryonic fibroblast cells at passage 10 (MEF-P10) served as a positive control of senescent cells. Quantification of β-gal staining intensity (F). Data are presented as the mean ± SD, n = 3, * p < 0.05; ** p < 0.01; *** p < 0.001 versus control group. NS, non-specific. The images were captured at 40× and two folds enlargement is shown.
Figure 4 The D-Δ(1-18)N-Ter-Antp induced the altered expression of metabolism and signaling-related proteins. (A,B) U-87MG cells were treated with the indicated concentrations of D-Δ(1-18)N-Ter-Antp peptide at the indicated concentration for 12 h and then subjected to immunoblot analyses of cell lysates for VDAC1, HK-I, ATPsyn5a, and citrate synthase (CS) (A). Quantification of the immunoblot (B). (C–E) Immunoblotting of the indicated proteins c-Jun, NF-κB-p65, p53, CDK2 and IkB-a (C) and their quantitative analysis (D,E). The results were from triplicates of different biological repeats (n = 3) and are presented as the means ± SEM. * p ≤ 0.05; ** p ≤ 0.01; *** p ≤ 0.001.
(In general: A western blot detects proteins with antibodies after separation by electrophoresis.)

The subject of assay [2] is U-87MG cells. The assay can be described thus: Acridine orange (AO) staining of acidic vesicles. It counts as cell-based, human. As to conditions: 6 h, serum-free DMEM. On the procedure:
Figure 7 D-Δ(1-18)-N-Ter-Antp peptide induced vesicle/particle formation. U-87MG cells were treated for 6 h with the indicated concentrations of D-Δ(1-18)N-Ter-Antp peptide in serum-free DMEM. (A) Cells were visualized for vesicle formation under a light microscope. Red circles indicate vesicles/particles. The images were captured at 40× and two folds enlargement is shown. (B,C) Cells were stained with acridine orange (AO). Arrows indicate red/orange stained endosomal/lysosomal vesicles (B). Scale bars were 20 μm. Vesicles/particles are indicated by violet arrows. Quantification of AO staining intensity (C). (D) Cells were stained with anti-vinculin antibodies, followed by secondary anti-mouse-cy3 antibodies. […] (F) U-87MG cells were treated with various concentrations of D-Δ(1-18)N-Ter-Antp peptide for the indicated time and subjected to Oil Red O staining and quantification as described in the Supplementary Data. […]
color was read in a spectrophotometer at 680 nm. […]
U-87MG cells were treated with D-Δ(1-18)N-Ter-Antp peptide in serum-free DMEM media for 6 h at 37℃, incubated with acridine orange (1 μg/ml) for 15 min, visualized by fluorescence microscopy (Olympus LX2 - KSP, Tokyo, Japan), and images were captured with a CCD camera. About 200 cells were counted for each […]

Setting [3] is: immunoblot normalized to β-actin, n = 3.

For the substance “19-FTKGYGFGL-26- RQIKIWFQNRRMKWKK [D-Δ(1-18)N-Ter-Antp]”, in assay [1] (immunoblot for LC3-I and LC3-II), the “Autophagy, appearance of LC3-II” value is listed as “induced”. Also, in assay [1] (setting [3]), the “Decrease of expression of IκBα” value is recorded as 2 fold, the “Decrease of expression of cyclin-dependent kinase 2 (CDK-2)” value was determined as 2 fold, the “Enhanced expression of c-Jun” value is recorded as 6 fold and the “Enhanced expression of nuclear factor kappa B (NF-κB p65)” value came out at 3.5 fold. The “Enhanced expression of p53” value in assay [1] (setting [3]) is listed as 3 fold. The “Increase in orange color (AO accumulation in acidic vesicles)” value in assay [2] is listed as “more than 3 fold”.
